Experimental data from the supplement of paper PMC10307832.

Assays:
Assay in all cases: relative viability (nuclei count vs DMSO), 5 days (fraction); higher = more cells survive
Gemcitabine = compound: Nc1ccn([C@@H]2O[C@H](CO)[C@@H](O)C2(F)F)c(=O)n1 [Gemcitabine]
In short: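 On vehicle-anchored 1536-well plates, lung cancer cell lines held overnight at 37 °C were pinned with five library-drug doses (not always all listed) spaced by √10. With no medium change over 5 days, they were then fixed, permeabilised and Hoechst-stained in one step and imaged at 4×. MetaXpress counted nuclei, and viability is the median across plates of treated-well over vehicle-well nuclei. Acceptance needed control CV below 25% and at least one doubling.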

[1] = compound: Nc1ccn([C@@H]2O[C@H](CO)[C@@H](O)C2(F)F)c(=O)n1 [Gemcitabine] + CC(=O)c1c(C)c2cnc(Nc3ccc(N4CCNCC4)cn3)nc2n(C2CCCC2)c1=O [Palbociclib] (partner 0.5 µM)
In short: (§1)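 Lung cancer cell lines were pin-tool dosed in 1536-well plates on the day after seeding, with either a lone drug or a fixed anchor-drug dose plus five library-drug doses (not always all listed) in √10 steps. Nuclei were counted on 4× images after 5 days. Relative viability is the ratio of treated-well to vehicle-well nuclei counts, with each value a median of duplicate plates.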

Gemcitabine + Foretinib = compound: Nc1ccn([C@@H]2O[C@H](CO)[C@@H](O)C2(F)F)c(=O)n1 [Gemcitabine] + COc1cc2c(Oc3ccc(NC(=O)C4(C(=O)Nc5ccc(F)cc5)CC4)cc3F)ccnc2cc1OCCCN1CCOCC1 [Foretinib] (partner 0.25 µM)
In short: as §1

Gemcitabine + OSI-027 = compound: Nc1ccn([C@@H]2O[C@H](CO)[C@@H](O)C2(F)F)c(=O)n1 [Gemcitabine] + COc1cccc2cc(-c3nc([C@H]4CC[C@H](C(=O)O)CC4)n4ncnc(N)c34)[nH]c12 [OSI-027] (partner 0.5 µM)
In short: as §1

Cell Line | relative viability (Gemcitabine; 0.001 µM) | relative viability (Gemcitabine; 0.003162 µM) | relative viability (Gemcitabine; 0.01 µM) | relative viability (Gemcitabine; 0.03162 µM) | relative viability (Gemcitabine; 0.1 µM) | relative viability ([1]; first compound 0.001 µM) | relative viability ([1]; first compound 0.003162 µM) | relative viability ([1]; first compound 0.01 µM) | relative viability ([1]; first compound 0.03162 µM) | relative viability ([1]; first compound 0.1 µM) | relative viability (Gemcitabine + Foretinib; first compound 0.001 µM) | relative viability (Gemcitabine + Foretinib; first compound 0.003162 µM) | relative viability (Gemcitabine + Foretinib; first compound 0.01 µM) | relative viability (Gemcitabine + Foretinib; first compound 0.03162 µM) | relative viability (Gemcitabine + Foretinib; first compound 0.1 µM) | relative viability (Gemcitabine + OSI-027; first compound 0.001 µM) | relative viability (Gemcitabine + OSI-027; first compound 0.003162 µM) | relative viability (Gemcitabine + OSI-027; first compound 0.01 µM) | relative viability (Gemcitabine + OSI-027; first compound 0.03162 µM) | relative viability (Gemcitabine + OSI-027; first compound 0.1 µM)
NCI-H23 | 0.898 | 0.299 | 0.144 | 0.146 | 0.139 | 0.383 | 0.245 | 0.158 | 0.156 | 0.139 | 0.751 | 0.441 | 0.178 | 0.163 | 0.131 | 0.544 | 0.272 | 0.127 | 0.151 | 0.108
NCI-H322M | 0.813 | 0.375 | 0.295 | 0.281 | 0.304 | 0.463 | 0.396 | 0.336 | 0.452 | 0.425 | 0.985 | 0.383 | 0.289 | 0.272 | 0.29 | 0.348 | 0.376 | 0.258 | 0.256 | 0.278
NCI-H358 | 0.972 | 0.415 | 0.179 | 0.154 | 0.157 | 0.124 | 0.0834 | 0.0975 | 0.0732 | 0.08 | 0.729 | 0.168 | 0.0883 | 0.0934 | 0.0705 | 0.523 | 0.114 | 0.0702 | 0.0815 | 0.0642
NCI-H441 | 0.993 | 0.63 | 0.292 | 0.13 | 0.139 | 0.242 | 0.163 | 0.178 | 0.13 | 0.123 | 1.2 | 0.711 | 0.421 | 0.21 | 0.211 | 0.583 | 0.28 | 0.247 | 0.165 | 0.201
NCI-H460 | 1.03 | 0.963 | 0.774 | 0.0431 | 0.0112 | 0.129 | 0.212 | 0.0945 | 0.0273 | 0.0115 | 0.935 | 1.01 | 0.832 | 0.0311 | 0.0132 | 0.838 | 0.76 | 0.26 | 0.0217 | 0.0185
NCI-H520 | 1.05 | 0.942 | 0.43 | 0.22 | 0.165 | 0.237 | 0.23 | 0.174 | 0.164 | 0.146 | 0.887 | 0.684 | 0.286 | 0.199 | 0.153 | 0.306 | 0.296 | 0.254 | 0.189 | 0.156
NCI-H647 | 0.786 | 0.202 | 0.0889 | 0.0675 | 0.0582 | 0.388 | 0.287 | 0.0692 | 0.0695 | 0.044 | 1.06 | 0.279 | 0.0991 | 0.0846 | 0.0592 | 0.408 | 0.128 | 0.0727 | 0.0897 | 0.0704
NCI-H650 | 0.878 | 0.316 | 0.195 | 0.157 | 0.165 | 0.221 | 0.189 | 0.136 | 0.123 | 0.146 | 0.998 | 0.648 | 0.197 | 0.175 | 0.175 | 0.46 | 0.24 | 0.194 | 0.153 | 0.169
NCI-H661 | 1.05 | 0.941 | 0.808 | 0.305 | 0.259 | 0.394 | 0.409 | 0.411 | 0.241 | 0.237 | 1.04 | 0.871 | 0.956 | 0.341 | 0.218 | 0.767 | 0.597 | 0.374 | 0.204 | 0.208
NCI-H727 | 0.802 | 0.567 | 0.347 | 0.332 | 0.32 | 0.674 | 0.592 | 0.574 | 0.597 | 0.503 | 0.815 | 0.71 | 0.376 | 0.363 | 0.276 | 0.586 | 0.409 | 0.353 | 0.327 | 0.297
NCI-H838 | 0.987 | 1.15 | 1.05 | 0.467 | 0.153 | 0.228 | 0.244 | 0.237 | 0.199 | 0.125 | 1.12 | 1.26 | 0.999 | 0.435 | 0.17 | 0.367 | 0.441 | 0.3 | 0.245 | 0.124
NCI-H1355 | 0.987 | 0.818 | 0.392 | 0.187 | 0.152 | 0.403 | 0.365 | 0.251 | 0.168 | 0.146 | 0.858 | 0.7 | 0.247 | 0.2 | 0.187 | 0.362 | 0.28 | 0.159 | 0.178 | 0.173
NCI-H1395 | 0.779 | 0.594 | 0.422 | 0.365 | 0.364 | 0.614 | 0.627 | 0.445 | 0.352 | 0.347 | 0.922 | 0.763 | 0.541 | 0.388 | 0.349 | 0.705 | 0.493 | 0.391 | 0.313 | 0.303
NCI-H1437 | 1.01 | 0.854 | 0.705 | 0.362 | 0.21 | 0.317 | 0.351 | 0.331 | 0.225 | 0.171 | 1.28 | 1.14 | 0.867 | 0.442 | 0.209 | 0.822 | 0.734 | 0.452 | 0.297 | 0.181
NCI-H1650 | 1.04 | 0.572 | 0.271 | 0.154 | 0.163 | 0.339 | 0.308 | 0.261 | 0.186 | 0.127 | 1.28 | 0.666 | 0.374 | 0.179 | 0.145 | 0.501 | 0.184 | 0.114 | 0.137 | 0.134
